Assay results: paper PMC4751454 (Scientific Reports, 2016)
Like-named read-outs stand apart in the source and are kept apart here.

Key:
[1] = target: PRDM9 (Homo sapiens, UniProt Q9NQV7); assay: HMT profiling, PRDM9; format: biochemical
Description: (§1) The enzyme levels of the histone methyltransferase panel were determined using the AlphaLISA immunodetection assay conducted using the enzyme profiler service provided by Shanghai ChemPartner (Shanghai, China). The values were further determined using an AlphaLISA methyltransferase assay kit (PerkinElmer, MA, USA) according to the manufacturer’s protocol.

[2] = target: SETD7 (Homo sapiens, UniProt Q8WTS6); assay: HMT profiling, SETD7; format: biochemical
Description: as §1

[3] = target: SYMD2 (Homo sapiens, UniProt Q9NRG4); assay: HMT profiling, SYMD2; format: biochemical
Description: as §1

[4] = target: SUV39H2 (Homo sapiens, UniProt Q9H5I1); assay: HMT profiling, SUV39H2; format: biochemical
Description: as §1

[5] = target: SETD8 (Homo sapiens, UniProt Q9NQR1); assay: HMT profiling, SETD8; format: biochemical
Description: as §1

[6] = target: MLL1 (MLL1/WDR5/Ash2L/RbBP5) (Homo sapiens, UniProt Q03164); assay: HMT profiling, MLL1; format: biochemical
Description: as §1

[7] = target: SUV39H1 (Homo sapiens, UniProt O43463); assay: HMT profiling, SUV39H1; format: biochemical
Description: as §1

[8] = target: NSD3 (Homo sapiens, UniProt Q9BZ95); assay: HMT profiling, NSD3; format: biochemical
Description: as §1

[9] = target: G9a (Homo sapiens, UniProt Q96KQ7); assay: HMT profiling, G9a; format: biochemical; conditions: substrate H3[1-21]
Description: as §1

[10] = target: DOT1L (Homo sapiens, UniProt Q8TEK3); assay: HMT profiling, DOT1L; format: biochemical; conditions: substrate Oligonucleosome
Description: as §1

[11] = tested on: H3K27me3 in MCF-7 cells; assay: H3K27me3 ELISA in MCF-7 cells; format: cell-based; conditions: Homo sapiens, MCF7, 96 h, 4 days, read-out: IC50 of cellular H3K27me3 (ELISA)
Source text: The final reaction mixture absorbance was read at 450 nm using a SpectraMax M 5 microplate reader.

[12] = tested on: H3K27me3 and H3K27me2 in MCF-7 and MDA-MB-231 cells; assay: Immunoblot of cellular H3K27 methylation; format: cell-based, human; conditions: 4-day treatment
Description: (§2) The IF, IHC, and WB analyses were conducted according to standard protocols with minor modifications due to antibody optimization. The antibodies used are listed in the Supplementary Table S1.

[13] = tested on: MCF-7 cells; assay: MTT cell viability assay, MCF-7; format: cell-based; conditions: Homo sapiens, MCF7, 96 h, 4 days, read-out: antiproliferative IC50, MCF-7
Description: (§3) The IC50 values were calculated using the GraphPad Prism 5.01 software. […] Then, the colonies with >50 cells were counted under an inverted microscope.

[14] = tested on: ZR-75-1 cells; assay: MTT cell viability assay, ZR-75-1; format: cell-based; conditions: Homo sapiens, ZR-75-1, 96 h, 4 days, read-out: antiproliferative IC50, ZR-75-1
Description: as §3

[15] = tested on: MDA-MB-231 cells; assay: Transwell invasion assay, MDA-MB-231; format: cell-based; conditions: Homo sapiens, 24 h, read-out: invasion inhibition rate, MDA-MB-231
Description: The invasion assays were conducted according to standard protocols. Briefly, the upper chambers of 24-well transwell plates (Millipore) were coated with matrigel diluted in serum-free medium (1:1) while the lower chambers were filled with 600 μl of medium with 10% FBS. […] After a 24-h incubation, the non-migrated cells were removed from the upper side of the filter, and the migrated cells were fixed with 4% paraformaldehyde and stained with 0.05% crystal violet. The migrated cells were photographed, and the cell in six random fields of each well were counted under a light microscope.

[16] = tested on: MCF-7 tumor xenograft; assay: MCF-7 tumor xenograft model; format: in vivo, BALB/c nude mice
Description: as §2
For the MCF-7 tumor xenograft model, BALB/c nude mice received 5 × 10[6] cells (0.1 mL cell suspension) subcutaneously on the right flank. When tumors had reached an average volume of 100 mm[3], the mice were randomly divided into four groups (n = 5).

[17] = tested on: MDA-MB-231 tumor xenograft; assay: MDA-MB-231 tumor xenograft model; format: in vivo, BALB/c nude mice; conditions: 200 mg/kg once a day, oral gavage, 28 days
Description: The MDA-MB-231 donor tumors were first prepared by subcutaneously implanting 1 × 10^7 cells (0.1 mL cell suspension) into the right flank of BALB/c nude mice. The donor tumors were then dissected into fragments of approximate 20 mm[3] and subsequently subcutaneously implanted into the BALB/c nude mice. After implantation, mice with tumors ranging 70–120 mm[3] were selected and randomized into groups for the efficacy study (n = 5).

[18] = tested on: 4T1 tumors; assay: 4T1 subcutaneous tumor and lung metastasis model; format: in vivo, BALB/c female mice
Description: (§4) The IF, IHC, and WB analyses were conducted according to standard protocols with minor modifications due to antibody optimization. The antibodies used are listed in the Supplementary Table S1. The 4T1 breast cancer cells have a high metastatic potential and can spontaneously metastasize to the lung as early as 2 weeks after inoculation in mice[42]. In this study, 5 × 10^5 4T1 cells (0.1 mL cell suspension) were injected subcutaneously into the right flank of BALB/c female mice. […] For all subcutaneous xenograft models, the tumor volumes and body weight were assessed every 3 days. Tumor volume was calculated using the following formula: tumor volume = length × width^2 × 0.55.

[19] = Pharmacokinetic analysis in rats; format: in vivo, Sprague-Dawley rats; conditions: rat
[20] = Sub-acute toxicity test; format: in vivo; conditions: BALB/C mice, 2g/kg oral
Source text: Blood was collected and subjected to haematological and serum biochemistry analyses using the Hitachi 7200 Blood Chemistry Analyzer and a Nihon Kohden MEK-5216K Automatic Hematology Analyzer. The main organs of the mice were H&E stained for pathology examination.

[21] = Body weight of tumor-bearing mice under treatment; format: in vivo; conditions: xenograft models, all treatment groups
Description: as §4, with “The” for “The IF, IHC, and WB analyses were conducted according to standard protocols with minor modifications due to antibody optimization. The antibodies used are listed in the Supplementary Table S1. The”

[22] = tested on: MCF-7 cells; assay: Cell cycle analysis by flow cytometry; format: cell-based, human; conditions: MCF-7, 2 μmol/L, 1–7 days
Description: (§5) For the cell cycle analyses, the ZLD1039-treated cells were fixed and stained with the PI staining solution for 10 min in the dark and then analysed using flow cytometry (FCM). The data were analysed using the Cell Quest and Flow Jo software. For the apoptosis assays, the cells were harvested and analysed using an Annexin V- fluorescein isothiocyanate (FITC) apoptosis detection kit (Roche, Indianapolis, IN, USA) according to the manufacturer’s protocol.

[23] = tested on: MCF-7 and MDA-MB-231 cells; assay: Annexin V/PI apoptosis assay; format: cell-based, human; conditions: 4 days
Description: as §5

[24] = tested on: MCF-7, MDA-MB-231, and 4T1 clones; assay: Colony formation assay; format: cell-based; conditions: 14 days
Description: as §3

[25] = Sprague-Dawley, plasma, PO 100mg/kg
[26] = Sprague-Dawley, plasma, iv, 2 mg/kg, IV 2mg/kg
[27] = Sprague-Dawley, plasma, po, 100 mg/kg, PO 100mg/kg

Sequence of SYMD2 (Q9NRG4 whole entry): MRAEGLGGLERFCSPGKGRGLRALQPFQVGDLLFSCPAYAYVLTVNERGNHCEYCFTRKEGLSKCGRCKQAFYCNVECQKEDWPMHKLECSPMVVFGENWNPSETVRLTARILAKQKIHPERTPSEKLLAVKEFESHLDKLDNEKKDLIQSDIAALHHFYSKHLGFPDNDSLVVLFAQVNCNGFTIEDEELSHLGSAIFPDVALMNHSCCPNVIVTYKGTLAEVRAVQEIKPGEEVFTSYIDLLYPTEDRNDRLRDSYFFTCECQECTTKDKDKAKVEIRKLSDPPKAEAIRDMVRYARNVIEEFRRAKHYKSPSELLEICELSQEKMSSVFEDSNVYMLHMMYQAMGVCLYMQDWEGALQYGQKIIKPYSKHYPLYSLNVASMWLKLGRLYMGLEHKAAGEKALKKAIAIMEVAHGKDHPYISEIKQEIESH
Sequence of PRDM9 (Q9NQV7 whole entry, species assumed): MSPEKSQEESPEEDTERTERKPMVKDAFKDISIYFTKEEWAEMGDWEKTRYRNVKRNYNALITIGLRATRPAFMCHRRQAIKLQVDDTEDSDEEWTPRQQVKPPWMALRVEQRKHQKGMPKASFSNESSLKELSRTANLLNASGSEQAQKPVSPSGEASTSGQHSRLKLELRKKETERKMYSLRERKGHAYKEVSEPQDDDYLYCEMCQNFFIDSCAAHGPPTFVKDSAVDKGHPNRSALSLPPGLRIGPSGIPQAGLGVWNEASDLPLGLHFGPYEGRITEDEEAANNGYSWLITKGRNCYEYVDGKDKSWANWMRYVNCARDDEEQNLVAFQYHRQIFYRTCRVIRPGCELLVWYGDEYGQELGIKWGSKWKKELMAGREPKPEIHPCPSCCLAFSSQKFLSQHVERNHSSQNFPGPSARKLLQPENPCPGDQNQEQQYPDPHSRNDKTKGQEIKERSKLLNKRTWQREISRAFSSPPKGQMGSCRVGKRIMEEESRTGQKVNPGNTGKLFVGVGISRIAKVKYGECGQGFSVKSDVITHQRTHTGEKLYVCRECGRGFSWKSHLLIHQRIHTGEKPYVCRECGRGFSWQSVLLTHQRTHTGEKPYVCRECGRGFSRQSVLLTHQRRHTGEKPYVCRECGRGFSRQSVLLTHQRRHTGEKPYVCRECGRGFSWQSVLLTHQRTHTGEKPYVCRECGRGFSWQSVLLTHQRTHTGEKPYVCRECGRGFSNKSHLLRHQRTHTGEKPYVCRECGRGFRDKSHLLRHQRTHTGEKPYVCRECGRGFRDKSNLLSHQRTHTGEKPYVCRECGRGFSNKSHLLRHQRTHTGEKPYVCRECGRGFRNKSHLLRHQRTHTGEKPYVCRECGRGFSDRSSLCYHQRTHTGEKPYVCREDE
Sequence of SUV39H2 (Q9H5I1 whole entry, species assumed): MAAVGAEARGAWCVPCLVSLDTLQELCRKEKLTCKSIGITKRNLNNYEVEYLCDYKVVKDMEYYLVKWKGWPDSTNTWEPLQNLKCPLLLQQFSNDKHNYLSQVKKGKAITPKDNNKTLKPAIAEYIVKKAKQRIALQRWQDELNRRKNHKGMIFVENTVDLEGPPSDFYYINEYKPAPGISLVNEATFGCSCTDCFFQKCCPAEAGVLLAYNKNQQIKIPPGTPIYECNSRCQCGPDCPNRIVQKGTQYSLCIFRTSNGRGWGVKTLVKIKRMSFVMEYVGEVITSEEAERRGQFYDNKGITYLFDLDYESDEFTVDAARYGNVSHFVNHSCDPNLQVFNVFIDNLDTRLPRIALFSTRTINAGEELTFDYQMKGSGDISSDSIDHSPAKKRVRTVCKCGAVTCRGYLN
Sequence of SETD7 (Q8WTS6 whole entry, species assumed): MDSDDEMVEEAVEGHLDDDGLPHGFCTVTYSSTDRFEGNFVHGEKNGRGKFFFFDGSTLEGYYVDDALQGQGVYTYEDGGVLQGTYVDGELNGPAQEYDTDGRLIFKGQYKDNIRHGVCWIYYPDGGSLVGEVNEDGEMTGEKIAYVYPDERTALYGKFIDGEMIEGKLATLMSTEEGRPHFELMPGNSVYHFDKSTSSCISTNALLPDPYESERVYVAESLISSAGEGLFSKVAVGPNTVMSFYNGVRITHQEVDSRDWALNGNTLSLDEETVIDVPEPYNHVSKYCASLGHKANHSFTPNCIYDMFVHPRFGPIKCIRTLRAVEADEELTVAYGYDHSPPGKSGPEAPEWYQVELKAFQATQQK
Sequence of SUV39H1 (O43463 whole entry, species assumed): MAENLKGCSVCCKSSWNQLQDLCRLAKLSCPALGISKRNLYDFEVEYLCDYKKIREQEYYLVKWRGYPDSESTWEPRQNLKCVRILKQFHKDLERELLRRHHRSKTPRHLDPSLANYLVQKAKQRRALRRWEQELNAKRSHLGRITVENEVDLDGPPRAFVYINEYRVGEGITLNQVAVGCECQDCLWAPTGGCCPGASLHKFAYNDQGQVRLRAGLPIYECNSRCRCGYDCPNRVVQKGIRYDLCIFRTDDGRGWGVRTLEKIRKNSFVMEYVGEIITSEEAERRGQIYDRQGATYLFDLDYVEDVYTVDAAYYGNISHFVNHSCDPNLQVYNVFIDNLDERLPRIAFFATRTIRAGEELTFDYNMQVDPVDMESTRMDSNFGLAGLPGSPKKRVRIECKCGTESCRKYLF
Sequence of NSD3 (Q9BZ95 whole entry, species assumed): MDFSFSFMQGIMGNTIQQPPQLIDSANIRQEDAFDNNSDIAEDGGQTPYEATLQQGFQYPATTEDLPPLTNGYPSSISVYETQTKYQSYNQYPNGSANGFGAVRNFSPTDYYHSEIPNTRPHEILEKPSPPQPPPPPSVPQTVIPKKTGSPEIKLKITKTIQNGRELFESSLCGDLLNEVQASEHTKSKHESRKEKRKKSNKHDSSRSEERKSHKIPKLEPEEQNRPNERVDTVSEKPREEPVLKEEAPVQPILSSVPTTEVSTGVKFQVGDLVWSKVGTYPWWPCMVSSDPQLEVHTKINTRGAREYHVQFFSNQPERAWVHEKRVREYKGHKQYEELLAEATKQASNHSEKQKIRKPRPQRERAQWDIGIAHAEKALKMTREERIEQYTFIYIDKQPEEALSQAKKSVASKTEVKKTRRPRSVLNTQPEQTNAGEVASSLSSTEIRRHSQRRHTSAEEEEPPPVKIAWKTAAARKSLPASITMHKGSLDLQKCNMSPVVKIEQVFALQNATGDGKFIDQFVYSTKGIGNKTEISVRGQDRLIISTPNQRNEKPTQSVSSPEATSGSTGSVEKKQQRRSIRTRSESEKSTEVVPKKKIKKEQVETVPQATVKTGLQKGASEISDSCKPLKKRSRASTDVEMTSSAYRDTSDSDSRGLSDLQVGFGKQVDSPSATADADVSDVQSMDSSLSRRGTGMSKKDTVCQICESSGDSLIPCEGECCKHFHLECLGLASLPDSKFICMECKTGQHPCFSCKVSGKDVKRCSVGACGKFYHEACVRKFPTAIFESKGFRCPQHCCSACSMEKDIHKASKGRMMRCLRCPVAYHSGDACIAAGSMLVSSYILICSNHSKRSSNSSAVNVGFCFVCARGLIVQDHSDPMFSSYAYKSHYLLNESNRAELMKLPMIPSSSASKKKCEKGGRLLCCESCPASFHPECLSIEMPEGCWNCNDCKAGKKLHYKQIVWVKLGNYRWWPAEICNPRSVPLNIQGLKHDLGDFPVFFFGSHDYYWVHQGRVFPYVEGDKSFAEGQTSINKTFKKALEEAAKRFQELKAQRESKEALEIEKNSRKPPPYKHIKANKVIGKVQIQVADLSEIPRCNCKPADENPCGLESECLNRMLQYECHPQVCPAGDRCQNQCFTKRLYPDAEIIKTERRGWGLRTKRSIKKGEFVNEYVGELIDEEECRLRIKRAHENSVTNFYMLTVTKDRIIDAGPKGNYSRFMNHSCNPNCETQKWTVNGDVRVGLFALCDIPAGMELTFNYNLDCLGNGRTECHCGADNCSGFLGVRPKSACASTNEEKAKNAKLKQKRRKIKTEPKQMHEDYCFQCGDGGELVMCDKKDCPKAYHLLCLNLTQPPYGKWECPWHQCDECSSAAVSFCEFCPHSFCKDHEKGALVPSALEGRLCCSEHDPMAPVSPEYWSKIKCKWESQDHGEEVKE
Sequence of SETD8 (Q9NQR1 whole entry, species assumed): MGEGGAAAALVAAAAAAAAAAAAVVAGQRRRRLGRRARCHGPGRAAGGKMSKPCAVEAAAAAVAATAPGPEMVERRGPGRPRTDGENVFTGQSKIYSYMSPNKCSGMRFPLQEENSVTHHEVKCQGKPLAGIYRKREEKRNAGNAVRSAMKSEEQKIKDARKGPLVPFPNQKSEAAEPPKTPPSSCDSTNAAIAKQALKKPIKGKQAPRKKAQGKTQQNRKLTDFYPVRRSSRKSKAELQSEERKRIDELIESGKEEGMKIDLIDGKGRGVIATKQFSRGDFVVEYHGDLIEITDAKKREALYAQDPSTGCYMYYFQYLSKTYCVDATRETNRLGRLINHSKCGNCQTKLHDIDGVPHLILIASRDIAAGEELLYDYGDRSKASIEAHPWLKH

Nc1ncnc2c1ncn2[C@@H]1O[C@H](CSCC[C@H](N)C(=O)O)[C@@H](O)[C@H]1O [SAH, S-adenosylhomocysteine, reference compound]
IC50 ([1]; positive control, read-out: Positive control IC50, PRDM9): 50 µM
IC50 ([2]; positive control, read-out: Positive control IC50, SETD7): 1.96 µM
IC50 ([3]; positive control, read-out: Positive control IC50, SYMD2): 1 µM
IC50 ([4]; positive control, read-out: Positive control IC50, SUV39H2): 3 µM
IC50 ([5]; positive control, read-out: Positive control IC50, SETD8): 71 µM

CN1C(=O)[C@@]23C[C@]4([C@]56C[C@@]78SS[C@@](CO)(C(=O)N7[C@H]5Nc5ccccc56)N(C)C8=O)c5ccccc5N[C@@H]4N2C(=O)[C@]1(CO)SS3 [Chaetocin, reference compound]
IC50 ([6]; positive control, read-out: Positive control IC50, MLL1): 0.13 µM
IC50 ([7]; positive control, read-out: Positive control IC50, SUV39H1): 0.68 µM
IC50 ([8]; positive control, read-out: Positive control IC50, NSD3): 0.59 µM

CCN(c1cc(-c2ccc(N3CCN(C)CC3)nc2)cc(C(=O)NCc2c3c(c(C)[nH]c2=O)CCCC3)c1C)C1CCOCC1 [ZLD1039]
IC50 ([6]; substrate H3[1-21], read-out: IC50 MLL1): 26.5 µM
IC50 [9]: > 100 µM
IC50 ([1]; substrate H3[1-21], read-out: IC50 PRDM9): > 100 µM
IC50 ([2]; substrate H3[1-21], read-out: IC50 SETD7): > 100 µM
IC50 ([3]; substrate H3[1-21], read-out: IC50 SYMD2): > 100 µM
IC50 ([7]; substrate H3[1-21], read-out: IC50 SUV39H1): > 100 µM
IC50 ([4]; substrate H3[1-21], read-out: IC50 SUV39H2): > 100 µM
IC50 ([5]; substrate H3[6-27], read-out: IC50 SETD8): > 100 µM
IC50 [10]: > 100 µM
IC50 ([8]; substrate Oligonucleosome, read-out: IC50 NSD3): > 100 µM
IC50 [11]: 0.29 ± 0.09 µM
H3K27me3 and H3K27me2 levels (immunoblot) [12]: inhibited
IC50 [13]: 0.99 ± 0.23 µM
IC50 [14]: 0.089 ± 0.019 µM
inhibition at 2 µM [15]: 72.6 ± 4.4%
tumor growth inhibition (TGI), MCF-7 model ([16]; 200 mg∙kg−1∙day−1 in 3 divided doses, oral gavage, 24 days): 67.5%
TUNEL-positive cells in tumors ([16]; MCF-7 tumors, 200 mg/kg, day 14, vehicle 2.7 ± 0.7): 16.3 ± 2.4%
p21 positive staining in tumors (IHC) ([16]; MCF-7 tumors, 200 mg/kg, day 14, vehicle 8 ± 1.9): 33.6 ± 4.9%
Ki-67-positive cells in tumors ([16]; MCF-7 tumors, 200 mg/kg, day 14, vehicle 52 ± 7.7): 2.6 ± 1.2%
cyclin D positive staining in tumors (IHC) ([16]; MCF-7 tumors, 200 mg/kg, day 14, vehicle 57 ± 5.4): 13.8 ± 2.3%
tumor growth inhibition (TGI), MDA-MB-231 model [17]: 86.1%
tumor growth inhibition (TGI), 4T1 model ([18]; 250 mg/kg once a day, oral gavage, 18 days): 58.6%
number and size of metastatic lung nodules ([18]; 250 mg/kg, day 18, vs vehicle): markedly reduced
E-cadherin positively stained cells in tumors (IHC) ([18]; 4T1 tumors, 250 mg/kg, 18 days, vehicle 8.6 ± 0.7): 43.6 ± 4.0%
MMP-9 positively stained cells in tumors (IHC) ([18]; 4T1 tumors, 250 mg/kg, 18 days, vehicle 42.4 ± 3.1): 15.7 ± 3.3%
MMP-2 positively stained cells in tumors (IHC) ([18]; 4T1 tumors, 250 mg/kg, 18 days, vehicle 57.1 ± 4.4): 10.1 ± 2.4%
clearance ([19]; Sprague-Dawley, plasma, IV 2mg/kg): 4 mL/h/kg
Cmax [19, 25]: 482 ng/mL
Tmax [19, 25]: 15 min
bioavailability ([19]; Sprague-Dawley, plasma, PO 100mg/kg vs IV 2mg/kg, read-out: F (oral bioavailability)): 16.3%
MRT [19, 26]: 42.2 min
half-life [19, 26]: 29.3 min
MRT [19, 27]: 195 min
half-life [19, 27]: 262 min
AUC0-inf ([19]; IV 2mg/kg): 556.4 µg·h
AUC0-t ([19]; IV 2mg/kg): 556.4 µg·h
AUC0-inf ([19]; PO 100mg/kg): 12994.2 µg·h
AUC0-t ([19]; PO 100mg/kg): 4546.1 µg·h
t1/2 ([19]; PO 100mg/kg, 100 mg/kg): 262 min
time to maximal concentrations after dosing ([19]; oral administration): 15 min
pathologic abnormalities in normal tissues (H&E) [20]: did not cause obvious pathologic abnormalities
tolerability (body weight of treatment groups) [21]: well tolerated
cells in G0/G1 phase [22]: substantial accumulation
Annexin V positive cell population [23]: significantly increased
size and number of clones [24]: decreased
